# In patent publication US7854753B2, “Photokinetic delivery of biologically active substances using pulsed incoherent light” (Photokinetix, Inc., priority 2002, dated 2010):
# Experiments:
# [1] = volume of water for 1 g; cited from earlier work
# [2] = Franz skin diffusion cell permeation (percutaneous absorption) under ambient, natural or pulsed incoherent LED light; details: for Permeation Dark: Dark control, ambient light absent; for Ctrl / Ctrl-TiO2: Table 8 (405 nm series); for Ctrl: ambient light only; for Ctrl-TiO2 / Effect of 2% (w/w) TiO2 on permeation: ambient light; for Ctrl-TiO2: 2% TiO2; for Permeation Ctrl: ambient cool fluorescent light only, 260-750 nm, 120 cps; for Permeation Ctrl-TiO2: ambient fluorescent light, sample with 2% (w/w) rutile TiO2; for Effect of 2% (w/w) TiO2 on permeation: FIG. 4; for Permeation 350: 350 nm LED; for Permeation 350 / Permeation 405: pulse rate 24 cps, 75% duty cycle; for Permeation 1.7 cps / Permeation 9.7 cps: 350 nm; for Permeation 405: 405 nm LED
SMILES,Water Solubility (1 g) [1],Permeation Dark [2] [μg/0.64 cm^2/25 hrs],Ctrl [2],Ctrl-TiO2 [2],"Ctrl-TiO2/1.7 ([2]; Table 8, 405 nm series, 2% TiO2, 1.7 cps)","Ctrl-TiO2/9.7 ([2]; Table 8, 405 nm series, 2% TiO2, 9.7 cps)","Ctrl-TiO2/24 ([2]; Table 8, 405 nm series, 2% TiO2, 24 cps)","405/1.7 ([2]; Table 8, 405 nm, 1.7 cps)","405/9.7 ([2]; Table 8, 405 nm, 9.7 cps)","405/24 ([2]; Table 8, 405 nm, 24 cps)",Permeation Ctrl [2] [μg/0.64 cm^2/25 hrs],Permeation Ctrl-TiO2 [2] [μg/0.64 cm^2/25 hrs],Effect of 2% (w/w) TiO2 on permeation [2],Permeation 350 [2] [μg/0.64 cm^2/25 hrs],Permeation 1.7 cps ([2]; 1.7 cps) [μg/0.64 cm^2/25 hrs],Permeation 9.7 cps ([2]; 9.7 cps) [μg/0.64 cm^2/25 hrs],Permeation 405 [2] [μg/0.64 cm^2/25 hrs]
"Cc1ncc(CO)c(CO)c1O [Compound 5, Pyridoxine]",4.5 mL,261.30,32.90,806.25,537.60,862.75,0.00,179.38,0.00,187.81,32.90,806.20,significant effect,,,,
"CC(=O)[C@H]1CC[C@H]2[C@@H]3CCC4=CC(=O)CC[C@]4(C)[C@H]3CC[C@]12C [Compound 18, Progesterone]",Insoluble,0.00,,,,,,,,,0.00,0.00,,149.91,2.58,2.80,6.19
"C[C@]12CCC(=O)C=C1CC[C@@H]1[C@@H]2CC[C@@]2(C)[C@H]1CC[C@]2(C)O [Compound 17, Methyl Testosterone]",Insoluble,0.00,,,,,,,,,0.00,0.00,,153.25,12.84,29.57,25.37
"O=C(O)c1cccnc1 [Compound 6, Nicotinic acid]",60 mL,976.30,0.00,1371.00,,,,,,,0.00,1371.00,significant effect,,,,
